pIC50: −log10 of the molar value.
These compounds were tested against T1, Rho kinase II (ROKα) (Rattus norvegicus, UniProt Q62868) (assay: Inhibition of recombinant Rho kinase II (ROKα), 33P phosphate uptake into S6 substrate peptide). Conditions: recombinant Rho kinase II (Upstate Biotechnology), S6 phosphate-acceptor peptide, 33P-labelled ATP, 20 min at 37° C.
T1 construct: purchased Upstate Biotechnology
Format: biochemical
Description: The inhibition of the enzyme is investigated in an in vitro assay with recombinant Rho kinase II. The vessel-relaxing action is determined using phenylephrin-induced contractions of isolated rings of the saphenous artery of rabbits.
Inhibition of Recombinant Rho Kinase II (ROKα)
The activity of Rho kinase is determined by the uptake of ^33P phosphate into a substrate peptide. To this end, commercially available Rho kinase II (Upstate Biotechnology) is pre-incubated at 37° C. in the presence of the S6 phosphate-acceptor peptide with the test substances or a solvent control for 10 min. The kinase reaction is then started by addition of ^33P-labelled ATP. After 20 min at 37° C., the reaction is stopped by addition of H3PO4. Aliquots are pipetted onto filters and the filters are washed and then covered with scintillator. The radioactivity of the ^33P-labelled peptides bound to the filter is measured in a Micro-Beta counter. The IC50 value corresponds to the concentration of a test substance at which the Rho-kinase-catalysed uptake of ^33P into the peptide is inhibited by 50%, compared to a solvent control.

T1 sequence (Q62868 whole entry): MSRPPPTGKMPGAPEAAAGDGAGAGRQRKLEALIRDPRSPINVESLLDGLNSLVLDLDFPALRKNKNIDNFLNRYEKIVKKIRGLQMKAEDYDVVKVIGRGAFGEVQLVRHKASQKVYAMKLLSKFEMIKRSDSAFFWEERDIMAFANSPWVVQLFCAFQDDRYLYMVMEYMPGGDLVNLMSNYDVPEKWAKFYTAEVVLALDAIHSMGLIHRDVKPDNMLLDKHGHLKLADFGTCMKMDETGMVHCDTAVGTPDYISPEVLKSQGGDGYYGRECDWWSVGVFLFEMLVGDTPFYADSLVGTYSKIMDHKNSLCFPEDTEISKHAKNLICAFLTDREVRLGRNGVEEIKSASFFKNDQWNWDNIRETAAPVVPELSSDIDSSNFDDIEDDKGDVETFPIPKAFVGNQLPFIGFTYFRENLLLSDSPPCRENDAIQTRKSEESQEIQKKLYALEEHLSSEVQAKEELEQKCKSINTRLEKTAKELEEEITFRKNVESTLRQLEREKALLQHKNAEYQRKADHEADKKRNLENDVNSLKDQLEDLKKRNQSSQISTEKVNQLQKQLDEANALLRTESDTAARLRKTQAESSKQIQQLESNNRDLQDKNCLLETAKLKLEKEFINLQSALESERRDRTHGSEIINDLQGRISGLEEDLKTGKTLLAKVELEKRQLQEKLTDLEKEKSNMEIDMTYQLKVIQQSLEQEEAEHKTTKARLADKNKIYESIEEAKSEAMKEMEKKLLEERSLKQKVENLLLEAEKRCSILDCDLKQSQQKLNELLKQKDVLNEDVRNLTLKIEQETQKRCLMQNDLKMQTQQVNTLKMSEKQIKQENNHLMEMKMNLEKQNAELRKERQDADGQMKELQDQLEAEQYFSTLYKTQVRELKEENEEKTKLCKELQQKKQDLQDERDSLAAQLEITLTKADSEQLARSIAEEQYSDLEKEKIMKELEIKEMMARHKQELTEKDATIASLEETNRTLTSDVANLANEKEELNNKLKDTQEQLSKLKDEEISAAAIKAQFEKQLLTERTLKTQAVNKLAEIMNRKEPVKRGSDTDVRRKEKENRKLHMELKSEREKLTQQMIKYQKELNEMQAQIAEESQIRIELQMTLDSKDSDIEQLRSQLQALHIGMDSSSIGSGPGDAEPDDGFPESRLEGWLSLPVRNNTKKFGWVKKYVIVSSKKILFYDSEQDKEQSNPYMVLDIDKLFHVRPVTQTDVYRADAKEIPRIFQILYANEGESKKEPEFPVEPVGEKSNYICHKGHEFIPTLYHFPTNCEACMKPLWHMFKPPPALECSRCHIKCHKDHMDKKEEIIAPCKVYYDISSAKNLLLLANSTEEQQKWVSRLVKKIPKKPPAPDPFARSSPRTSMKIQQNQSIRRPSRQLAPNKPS

| pIC50 | SMILES |
| --- | --- |
| 7.31 | CC(C)(C)NCc1ccc(C(=O)Nc2ccc(Oc3ccnc4[nH]ccc34)c(F)c2)cc1 [Example 15] |
| 7.92 | Cc1c[nH]c2nccc(Oc3ccc(NC(=O)CNC(C)(C)C)cc3F)c12 [Example 23] |
| 7.57 | CN(C)CCNC(=O)Nc1ccc(Oc2ccnc3[nH]ccc23)c(F)c1 [Example 40] |
| 7.70 | CN(C)CCOC(=O)Nc1ccc(Oc2ccnc3[nH]ccc23)c(F)c1 [Example 41] |

Reference: US20080249105A1, “Pyrrolopyridine-Substituted Benzol Derivatives for Treating Cardiovascular Diseases” (Bayer Healthcare AG, priority 2003, published 2008)
